From patent publication US20210283078A1, “Treatment of cholestatic pruritus” (CymaBay Therapeutics, Inc., priority 2017, published 2021)
Where two headings read alike, the source gives them in different places.

How the values were obtained:
[1] = test system: PBC patients with pruritus; conditions: Phase 2a; cited from earlier work
[2] = test system: patients with cholestatic pruritus; conditions: several studies; cited from earlier work
[3] = test system: patients with cholestatic pruritus; conditions: two studies; cited from earlier work
[4] = test system: patients with cholestatic pruritus; conditions: more recent study; cited from earlier work
PBC patients = conditions: 12-month trial, cited from earlier work
adult subjects with PBC [5] = assay: Example 2: Low-dose trial in PBC (NCT02955602), pruritus by VAS; format: in vivo, human; conditions: for baseline median VAS: subjects with VAS>0 at baseline; for median change in VAS: week 26
Text: (§1) The trial subjects were adult, male or female, with a diagnosis of PBC by at least two of the following three criteria: (a) a history of alkaline phosphatase (ALP) above the upper limit of normal (ULN) for at least six months, (b) positive anti-mitochondrial antibody titers >1/40 on immunofluorescence or M2 positive by enzyme linked immunosorbent assay or positive PBC-specific antinuclear antibodies, and (c) documented liver biopsy result consistent with PBC, on a stable and recommended dose of UDCA for the past twelve months, and ALP≥1.67×ULN. Exclusion criteria included AST or ALT≥3×ULN, total bilirubin (TBIL)≥2×ULN, autoimmune hepatitis or a history of chronic viral hepatitis, PSC, the current use of fibrates or simvastatin, the use of colchicine, methotrexate, azathioprine, or systemic steroids in the previous two months, the use of an experimental treatment for PBC, and the use of an experimental or unapproved immunosuppressant. […] Pruritus was assessed using VAS, 5-D itch, and PBC-40. During the study, three cases of asymptomatic increases in transaminases were observed (two in the 200 mg and one in the 50 mg groups): all were reversible on cessation of treatment and were not accompanied by elevation of total bilirubin. Since the study had already shown a clear efficacy signal, the study was discontinued.
At 12 weeks, the results of pruritus assessment by VAS (0-100 scale) were as follows:
37 subjects with VAS>0 at baseline were analysed in the interim analysis at 26 weeks: 18 subjects in the 5/10 mg group and 19 in the 10 mg group. Baseline median VAS were 15 (range 1-68) and 50 (range 5-90) in the 5/10 mg and 10 mg groups, respectively. At week 26, median changes in VAS were −50% and −55% in the 5/10 mg and 10 mg groups, respectively.

adult subjects with PBC [6] = assay: Example 1: High dose trial in PBC (NCT02609048); format: in vivo, human; conditions: for cases of asymptomatic increases in transaminases: reversible on cessation, no elevation of total bilirubin
Text: as §1

[7] = test system: adult subjects with PSC, PFIC, or AS; assay: Example 3: treatment of subjects with hepatobiliary disease associated with pruritus; format: in vivo, human; conditions: 1, 2, 5, and 10 mg/day oral
Procedure: Subjects are permitted their usual other medications, including UDCA. […] At each visit, the subjects are assessed for cholestatic symptoms and biomarkers, and assessed for cholestatic pruritus. The subjects also maintain health diaries, which are reviewed at each visit.

CCCC[C@]1(CC)CS(=O)(=O)c2cc(CNC(CC(=O)O)CC(=O)O)c(OC)cc2[C@@H](c2ccccc2)N1 [GSK2330672]
diarrhea (most common side effect), subjects [1]: 33% | reductions in itch scores (1-10 numerical rating scale, PBC-40 itch domain score, 5-D itch scale) vs placebo [1]: significantly greater reductions in itch scores

C=C1CC[C@@]2(O)[C@H]3Cc4ccc(O)c5c4[C@@]2(CCN3CC2CC2)[C@H]1O5 [nalmefene]
reduction of cholestatic pruritus vs control intervention [2]: more likely to reduce cholestatic pruritus than the control intervention

CN[C@H]1CC[C@@H](c2ccc(Cl)c(Cl)c2)c2ccccc21 [sertraline]
tolerability and reduction of itch intensity [3]: well tolerated and moderately effective

CO[C@H]1/C=C/O[C@@]2(C)Oc3c(C)c(O)c4c(O)c(c(/C=N/N5CCN(C)CC5)c(O)c4c3C2=O)NC(=O)/C(C)=C\C=C\[C@H](C)[C@H](O)[C@@H](C)[C@@H](O)[C@@H](C)[C@H](OC(C)=O)[C@@H]1C [rifampicin]
incidence of significant hepatitis [4]: 7.3%

CC[C@H]1[C@@H](O)[C@@H]2[C@H](CC[C@]3(C)[C@@H]([C@H](C)CCC(=O)O)CC[C@@H]23)[C@@]2(C)CC[C@@H](O)C[C@@H]12 [OCALIVA, 6α-ethylchenodeoxycholic acid]
severe pruritus, patients (PBC patients; 10 mg arm): 23% | severe pruritus, patients (PBC patients; titration arm): 19%

CCO[C@H](COc1ccc(C(F)(F)F)cc1)CSc1ccc(OCC(=O)O)c(C)c1 [Seladelpar, [4-({(2R)-2-ethoxy-3-[4-(trifluoromethyl)phenoxy]propyl}sulfanyl)-2-methylphenoxy]acetic acid]
effect on cholestatic pruritus associated with PBC (adult subjects with PBC [5]; 5 mg/day and 10 mg/day, 12 weeks): significantly reduced the cholestatic pruritus | pruritus VAS (0-100 scale), median (adult subjects with PBC [5]; 5 mg/day, Visit 2 (Day 1)): 8 | pruritus VAS (0-100 scale), median (adult subjects with PBC [5]; 5 mg/day, Visit 3 (Week 1)): 10 | pruritus VAS (0-100 scale), median (adult subjects with PBC [5]; 5 mg/day, Visit 4 (Week 2)): 9 | pruritus VAS (0-100 scale), median (adult subjects with PBC [5]; 5 mg/day, Visit 5 (Week 4)): 10 | pruritus VAS (0-100 scale), median (adult subjects with PBC [5]; 5 mg/day, Visit 6 (Week 6)): 5 | pruritus VAS (0-100 scale), median (adult subjects with PBC [5]; 5 mg/day, Visit 7 (Week 8)): 7 | pruritus VAS (0-100 scale), median (adult subjects with PBC [5]; 5 mg/day, Visit 8 (Week 12)): 3 | baseline median VAS (adult subjects with PBC [5]; 10 mg group, n=19): 50 (range 5-90) | median change in VAS (adult subjects with PBC [5]; 10 mg group): −55% | pruritus VAS (0-100 scale), median (adult subjects with PBC [5]; 10 mg/day, Visit 2 (Day 1)): 25 | pruritus VAS (0-100 scale), median (adult subjects with PBC [5]; 10 mg/day, Visit 3 (Week 1)): 13 | pruritus VAS (0-100 scale), median (adult subjects with PBC [5]; 10 mg/day, Visit 4 (Week 2)): 30 | pruritus VAS (0-100 scale), median (adult subjects with PBC [5]; 10 mg/day, Visit 5 (Week 4)): 20 | pruritus VAS (0-100 scale), median (adult subjects with PBC [5]; 10 mg/day, Visit 6 (Week 6)): 10 | pruritus VAS (0-100 scale), median (adult subjects with PBC [5]; 10 mg/day, Visit 7 (Week 8)): 15 | pruritus VAS (0-100 scale), median (adult subjects with PBC [5]; 10 mg/day, Visit 8 (Week 12)): 6 | subjects discontinued for increased pruritus possibly related to PBC (adult subjects with PBC [5]; 10 mg/day, after five days, subject entered with intense pruritus): One | baseline median VAS (adult subjects with PBC [5]; 5/10 mg group, n=18): 15 (range 1-68) | median change in VAS (adult subjects with PBC [5]; 5/10 mg group): −50% | discontinuations related to seladelpar (adult subjects with PBC [5]; at 26 weeks): no discontinuations related to seladelpar | serious adverse events due to pruritus (adult subjects with PBC [5]; at 26 weeks): no serious adverse events due to pruritus | pruritus reported as an adverse event (adult subjects with PBC [5]; at 26 weeks, 24/119 subjects): 20% | effect on cholestasis, transaminases, LDL-cholesterol, inflammation (adult subjects with PBC [5]; doses as low as 5 mg/day, at 12 weeks): reversed cholestasis, decreased transaminases, decreased LDL-cholesterol, and reduced inflammation | cases of asymptomatic increases in transaminases (adult subjects with PBC [6]; 50 mg/day oral): one | cases of asymptomatic increases in transaminases (adult subjects with PBC [6]; 200 mg/day oral): two | adverse events of pruritus on treatment (adult subjects with PBC [6]; 50 or 200 mg/day oral): no adverse events of pruritus were reported | anti-cholestatic effect (primary endpoint ALP) (adult subjects with PBC [6]; 50 or 200 mg/day oral, at least two weeks of treatment): a potent anti-cholestatic effect was observed | improvement in disease (decrease in ALP and GGT) [7]: improvement in their disease

O=C1CC[C@@]2(O)[C@H]3Cc4ccc(O)c5c4[C@@]2(CCN3CC2CC2)[C@H]1O5 [naltrexone]
reduction of cholestatic pruritus vs control intervention [2]: more likely to reduce cholestatic pruritus than the control intervention

C=CCN1CC[C@]23c4c5ccc(O)c4O[C@H]2C(=O)CC[C@@]3(O)[C@H]1C5 [naloxone]
reduction of cholestatic pruritus vs control intervention [2]: more likely to reduce cholestatic pruritus than the control intervention
